# Key:
# [1] = Cytotoxicity against MDCK cells by MTS assay; type: toxicity, cell-based, Canis lupus familiaris; conditions: dog
# [2] = system: Influenza A virus; assay: Antiviral activity against influenza A virus A/Guangdong/1/2009 (H1N1) infected in MDCK cells by plaque assay; type: functional, organism-based
# [3] = system: A549; assay: Cytotoxicity against human A549 cells by MTS assay; type: functional
# [4] = system: Influenza A virus; assay: Antiviral activity against influenza A virus A/Aichi/2/68 (H3N2) infected in MDCK cells by plaque assay; type: functional, organism-based
# [5] = system: HEK-293T; assay: Cytotoxicity against human HEK293T cells by MTS assay; type: functional
# [6] = system: Influenza A virus; assay: Antiviral activity against influenza A virus A/PR/8/34 (H1N1) infected in MDCK cells by plaque assay; type: functional, organism-based
# [7] = Cytotoxicity against MDCK cells; type: toxicity, cell-based, Canis lupus familiaris; conditions: dog
# [8] = system: Influenza A virus; assay: Antiviral activity against Influenza A virus A (H1N1); type: functional, organism-based
# [9] = target: Neuraminidase (Influenza A virus, UniProt B4URF0); assay: Inhibition of influenza A virus neuraminidase
# Chain of Neuraminidase (B4URF0 whole entry): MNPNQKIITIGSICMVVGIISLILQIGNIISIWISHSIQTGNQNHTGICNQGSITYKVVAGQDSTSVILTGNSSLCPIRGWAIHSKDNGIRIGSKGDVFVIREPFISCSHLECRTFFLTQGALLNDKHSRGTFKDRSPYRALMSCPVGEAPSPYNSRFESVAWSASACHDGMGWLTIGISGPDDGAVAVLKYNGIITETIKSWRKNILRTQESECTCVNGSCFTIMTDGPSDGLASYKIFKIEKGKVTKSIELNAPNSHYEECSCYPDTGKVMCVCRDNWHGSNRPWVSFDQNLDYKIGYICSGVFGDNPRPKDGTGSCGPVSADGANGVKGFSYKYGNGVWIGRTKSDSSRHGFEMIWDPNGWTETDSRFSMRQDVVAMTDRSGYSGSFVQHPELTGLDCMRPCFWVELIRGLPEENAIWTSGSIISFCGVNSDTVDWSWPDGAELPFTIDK
# [10] = system: Influenza A virus; assay: Antiviral activity against influenza A virus A/California/07/2009 (H1N1) infected in MDCK cells assessed as reduction in cytopathic effect by DAPI staining based analysis; type: functional, organism-based
# [11] = system: Influenza A virus; assay: Antiviral activity against influenza A virus A/Brisbane/59/2009 (H1N1) infected in MDCK cells assessed as reduction in cytopathic effect by DAPI staining based analysis; type: functional, organism-based
# [12] = system: Influenza A virus; assay: Antiviral activity against influenza A virus A/California/07/2009 (H1N1) infected in MDCK cells assessed as reduction in cytopathic effect by fluorescence based analysis; type: functional, organism-based
# [13] = system: Influenza A virus; assay: Antiviral activity against influenza A virus A/Brisbane/59/2009 (H1N1) infected in MDCK cells assessed as reduction in cytopathic effect by fluorescence based analysis; type: functional, organism-based
# [14] = system: Influenza A virus; assay: Antiviral activity against influenza A virus H5N1 (RG14) infected in MDCK cells assessed as reduction in cytopathic effect by fluorescence based analysis; type: functional, organism-based
# [15] = Cytotoxicity against HEK293T cells incubated for 48 hrs by Cell Titer-Glo assay; type: toxicity, cell-based, HEK-293T; conditions: human
# [16] = system: Influenza A virus; assay: Antiviral activity against influenza A virus H5N1 (RG14) infected in MDCK cells assessed as reduction in cytopathic effect by DAPI staining based analysis; type: functional, organism-based
# [17] = system: Influenza A virus; assay: Antiviral activity against influenza A virus A/Udorn/1972 (H3N2) infected in MDCK cells assessed as reduction in cytopathic effect by DAPI staining based analysis; type: functional, organism-based
# [18] = Cytotoxicity against HEK293T cells assessed as reduction in cell viability measured after 48 hrs by Cell-Titer Glo assay; type: toxicity, cell-based, HEK-293T; conditions: human
# [19] = system: Influenza A virus; assay: Antiviral activity against influenza A virus A/Udorn/1972 (H3N2) infected in MDCK cells assessed as reduction in cytopathic effect by fluorescence based analysis; type: functional, organism-based
# [20] = Cytotoxicity against MDCK cells assessed as reduction in cell viability; type: toxicity, cell-based, Canis lupus familiaris; conditions: dog
# [21] = system: Influenza A virus; assay: Antiviral activity against influenza A virus H1N1, A/PR/8/34; type: functional, organism-based
# [22] = system: Influenza A virus; assay: Antiviral activity against influenza A virus […], A/WSN/33; type: functional, organism-based
# [23] = system: Influenza A virus; assay: Antiviral activity against influenza A virus H1N1, A/California/7/2009; type: functional, organism-based
# [24] = Cytotoxicity against MDCK cells assessed as reduction in cell viability measured after 72 hrs by fluorescence based assay; type: toxicity, Canis lupus familiaris; conditions: dog
# [25] = system: Influenza A virus; assay: Antiviral activity against influenza A virus A/WSN/1933 (H1N1) infected in MDCK cells assessed as reduction in cytopathic effect by fluorescence based analysis; type: functional, organism-based
# [26] = system: Influenza A virus; assay: Antiviral activity against Influenza A virus A/PR/8/34 (H1N1) infected in human A549 cells pretreated with cell for 3 hrs followed by viral infection and measured for 24 hrs; type: functional, organism-based
# [27] = Cytotoxicity against human A549 cells incubated for 48 hrs by neutral red uptake assay; type: toxicity, cell-based
# [28] = system: Influenza A virus; assay: Antiviral activity against influenza A virus H1N1,A/WSN/1933 infected in MDCK cells assessed as reduction in plaque formation incubated for 72 hrs by crystal violet staining based analysis; type: functional, organism-based; conditions: H1N1,A/WSN/1933, MDCK
# [29] = Cytotoxicity against MDCK cells assessed as reduction in cell viability measured after 72 hrs by MTT assay; type: toxicity, cell-based, Canis lupus familiaris; conditions: dog
# [30] = system: Influenza A virus; assay: Antiviral activity against influenza A virus H5N1,A/Vietnam/1194/2004 infected in MDCK cells assessed as reduction in plaque formation incubated for 72 hrs by crystal violet staining based analysis; type: functional, organism-based; conditions: H5N1,A/Vietnam/1194/2004, MDCK
# [31] = system: Influenza A virus; assay: Antiviral activity against Influenza A virus A/Brisbane/10/2007 (H3N2); type: functional, organism-based
# [32] = system: Influenza A virus; assay: Antiviral activity against Influenza A virus A/PR/8/34 (H1N1); type: functional, organism-based
# [33] = system: Influenza B virus; assay: Antiviral activity against Influenza B virus B/Yamagata; type: functional, organism-based
# [34] = system: Influenza B virus; assay: Antiviral activity against Influenza B virus B/Victoria; type: functional, organism-based
# [35] = Cytotoxicity against MDCK cells incubated for 72 hrs by CCK-8 assay; type: toxicity, cell-based, Canis lupus familiaris; conditions: dog
# [36] = system: Influenza A virus; assay: Antiviral activity against influenza A H5N1 infected in MDCK cells assessed as viral growth inhibition measured for 12 to 72 hrs; type: functional, organism-based
smiles,measurement,setting,value
O=C(NC1CCCCCC1)c1cc2c(s1)-c1ccsc1CC2,CC50,[1],> 100 µM
same,EC50,[2],1.14 µM
same,CC50,[3],> 100 µM
same,EC50,[4],0.41 µM
same,CC50,[5],> 100 µM
same,EC50,[6],1.03 µM
C=C1Cc2cc(C(F)(F)F)ccc2C(=O)NCC(C)(C)/C(=N/OC)CCCCOC1=O,CC50,[7],211 µM
same,EC50,[8],2.3 µM
Cc1onc(-c2ccccc2Cl)c1C(=O)N1CCN(c2ccc([N+](=O)[O-])cc2Cl)CC1,IC50,[9],0.1 µM
same,EC50,[10],1.2 µM
same,EC50,[11],1.2 µM
same,EC50,[12],4.2 µM
same,EC50,[13],1.2 µM
same,EC50,[14],0.32 µM
same,CC50 at 48 h,[15],> 100 µM
same,EC50,[16],0.32 µM
same,EC50,[17],0.7 µM
same,CC50 at 48 h,[18],> 100 µM
same,EC50,[19],0.7 µM
CC(=O)c1cc(O)ccc1O[C@@H]1O[C@H](CO)[C@@H](O)[C@H](OC(=O)c2cc(O)c(O)c(O)c2)[C@H]1OC(=O)c1cc(O)c(O)c(O)c1,CC50,[20],> 1000 µM
same,EC50,[21],30.7 µM
same,EC50,[22],24.6 µM
same,EC50,[23],30.7 µM
CN(C)S(=O)(=O)N1CCCC(CNC(=O)c2cccc(C(F)(F)F)c2)C1 (stereo not given),CC50 at 72 h,[24],> 100 µM
same,EC50,[25],0.28 µM
CCc1ccc(NC(=O)COC(=O)c2ccc3ccccc3n2)cc1,EC50,[26],51.6 µM
same,CC50 at 48 h,[27],> 400 µM
CCc1ccccc1N(CC(=O)Nc1cc(C)cc(C)c1)S(C)(=O)=O,EC50,[28],0.007 µM
same,CC50 at 72 h,[29],> 100 µM
same,EC50,[30],0.086 µM
COc1cccc(OC)c1C(=O)/C=C/c1nc(C)c(C)nc1C,CC50,[7],41.5 µM
same,EC50,[31],3.44 µM
same,EC50,[32],2.74 µM
same,EC50,[33],2.41 µM
same,EC50,[34],3.13 µM
CC(=O)c1cc(O)ccc1O[C@@H]1O[C@H](COC(=O)c2cc(O)c(O)c(O)c2)[C@@H](O)[C@H](OC(=O)c2cc(O)c(O)c(O)c2)[C@H]1O,CC50,[20],964 µM
same,EC50,[21],20.2 µM
same,EC50,[22],11.6 µM
same,EC50,[23],29.2 µM
NC(=O)c1nc(F)cnc1O [FAVIPIRAVIR],CC50,[20],> 1000 µM
same,EC50,[21],37.4 µM
same,EC50,[22],37.4 µM
same,EC50,[23],37.4 µM
O[C@H]1[C@H]2c3cc4c(cc3CN3CCC(=C[C@@H]1O)[C@H]23)OCO4 [LYCORINE],CC50 at 72 h,[35],20.9 µM
same,EC50,[36],< 0.46 µM
